This note sets out measurements from patent US12435087B2, “Modulators of DCN-1 and methods of use thereof” (Cellarity, Inc., priority 2023, dated 2025).

Like-named read-outs stand apart in the source and are kept apart here. Where only a bound is given, the exact number is not on record here.

For assay [1], the target named is DCN2 (DCUND2) protein PONY domain (Homo sapiens (Human), UniProt Q6PH85). The assay is described as follows: DCN2 TR-FRET assay, measurement of Kinact/KI. The format is binding. On the procedure: A TR-FRET Assay was performed to evaluate the ability of the compounds to bind DCN-2. The time resolved—Forster's resonance energy transfer (TR-FRET) assay was designed following the protocol established in (Scott et al., Nat Chem Biol. 2017 August; 13(8): 850-857). A recombinant form of the DCN2 (DCUND2) protein PONY domain was produced using an E. coli expression system at Viva Biotech China. The DCN2 protein was biotinylated (EZ sulfo-NHS-LC-biotin; Thermofisher) for labeling with 2.5 nM streptavidin terbium (Tb) cryptate in the reaction. The probe was changed to a non-covalent DCN1 inhibitor labeled with carboxyfluorescein (FAM; Zhou el al., Nat Commun. 2017; 8: 1150). Buffer conditions were modified to enhance protein stability by replacing TritonX with 0.05% Tween20 and increasing NaCl to 200 mM. […] The Kinact and KI measurements were taken to allow for continuous reads over 24 hrs. Plates were read every 5 min up to 1 hr, every 15 min up to 5 hr, and every hour up to 10 hours. Kinact and KI were calculated based on the following equations (Krippendorff B F, et al. Mechanism-based inhibition: deriving K(I) and k(inact) directly from time-dependent IC(50) values. J BiomolScreen. 2009; Mons E et al. A Comprehensive Guide for Assessing Covalent Inhibition in Enzymatic Assays Illustrated with Kinetic Simulations. […] The Kinact and KI values could be estimated from the tight curves of the IC50 values over time. [formula]
Sequence of DCN2 (DCUND2) protein PONY domain (Q6PH85 60-248): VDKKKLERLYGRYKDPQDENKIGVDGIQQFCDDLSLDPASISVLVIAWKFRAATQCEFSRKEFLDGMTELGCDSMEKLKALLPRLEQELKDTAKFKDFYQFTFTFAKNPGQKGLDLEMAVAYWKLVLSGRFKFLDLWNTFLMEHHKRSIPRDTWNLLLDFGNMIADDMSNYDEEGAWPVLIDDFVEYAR

In another assay the target is DCN1 protein (Homo sapiens (Human), UniProt Q96GG9). The assay is described as follows: Intact protein MS analysis with the RapidFire-TOF system (covalent adduct formation). The class given is binding. The conditions noted are these: 400 nM DCN1, incubated at room temperature for 3 hours. A digest of the protocol:
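Tag-free His-TEV-DCN1 expressed in E. coli at 400 nM in 25 mM Tris-HCl, 200 mM NaCl, 1 mM DTT, incubated with 11 compound concentrations at room temperature for 3 h unless otherwise specified. Quenched with 0.2% formic acid; intact-protein RapidFire Q-TOF MS, deconvoluted to detect parent and compound-adduct masses.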

In assay [2] the target is DCN1 (DCUND1) protein PONY domain (Homo sapiens (Human), UniProt Q96GG9). Kind of assay: TR-FRET assay (binding to DCN-1, displacement of FAM-labeled probe). A digest of the protocol:
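Compounds read at 1, 5 and 24 h, 0.1% final DMSO, by TR-FRET between terbium-streptavidin on biotinylated DCN1 PONY domain (E. coli) and a FAM-tagged non-covalent inhibitor probe. Two setups used, 5 nM protein with 20 nM labelled probe, or 0.31 nM protein with 100 nM labelled plus 800 nM unlabelled probe; buffer had TritonX and 200 mM NaCl. % activity relative to high (with probe) and low (without probe) controls.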

Where [3] appears, read: 24 hr after treatment with compound, read-out: TR FRET IC50 24 hr.
[4] abbreviates: read-out: TR FRET IC50 1 hr, 1 hr after treatment with compound.
Where [5] appears, read: TR FRET IC50 1 hr (nM), 1 hr after treatment with compound.

Sequence of DCN1 protein (Q96GG9 whole entry): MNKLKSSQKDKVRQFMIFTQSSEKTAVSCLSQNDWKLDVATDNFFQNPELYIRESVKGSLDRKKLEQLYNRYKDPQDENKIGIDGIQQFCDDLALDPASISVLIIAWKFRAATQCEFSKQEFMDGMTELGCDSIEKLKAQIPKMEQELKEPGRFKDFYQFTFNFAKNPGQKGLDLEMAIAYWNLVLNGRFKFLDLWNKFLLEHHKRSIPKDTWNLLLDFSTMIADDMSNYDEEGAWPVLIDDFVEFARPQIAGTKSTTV
Sequence of DCN1 (DCUND1) protein PONY domain (Q96GG9 60-248): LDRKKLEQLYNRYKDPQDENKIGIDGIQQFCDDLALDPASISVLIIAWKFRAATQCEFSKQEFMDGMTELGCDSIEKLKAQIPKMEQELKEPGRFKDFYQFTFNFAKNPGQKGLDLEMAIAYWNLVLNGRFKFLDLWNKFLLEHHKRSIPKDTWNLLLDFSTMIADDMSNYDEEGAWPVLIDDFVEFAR

By Ki is commonly meant a dissociation constant, usually derived from enzyme kinetics or from competition with a known ligand. By kinact is commonly meant the maximal first-order rate at which the target is inactivated. The kinact/KI is the second-order rate constant of inactivation. On to `C=C(CN1CCOCC1)C(=O)NC[C@@H](NC(=O)[C@H](Cc1nc2ccc(C(C)C)cc2s1)NC(=O)CC)C1CCCCC1` [Compound C1, reference compound], for which, in assay [1], the Ki is 0.2 to 0.5 nM, the kinact was 0.005 to 0.00833 s⁻¹ and the kinact/KI was in the range of 8.33e+06 to 1.67e+07 M⁻¹ s⁻¹.
The term Emax denotes the greatest response seen or fitted, relative to the assay's reference. In general, IC50 refers to the concentration needed to halve the response being measured. For the compound `C=C(CN(C)C1COC1)C(=O)NCc1cccc([C@@H]2c3cnn(-c4ccccc4)c3N(CC)C(=O)[C@H]2NC(=O)c2cccc(C(F)(F)F)c2)c1` [Compound I-66], the Emax at DCN1 protein was 80 to 100%. In addition, the IC50 in assay [2] (setting [3]) and in assay [2] (setting [4]) was ≤ 200 nM each time.
Turning to `C=C(CN1CCOCC1)C(=O)NCc1cccc([C@@H]2c3cnn(-c4ccccc4)c3N(CC)C(=O)[C@H]2NC(=O)c2nccc(C(F)(F)F)n2)c1` [Compound I-82], the Emax at DCN1 protein lay in the range of 80 to 100%. Moreover, the IC50 in assay [2] (setting [3]) and in assay [2] (setting [4]) was ≤ 200 nM each time.
For the compound `C=C(CN1CCOCC1)C(=O)NCc1cccc([C@@H]2c3cnn(-c4ccccc4)c3N(CC)C(=O)[C@H]2NC(=O)c2ccnn2C(F)(F)F)c1` [Compound I-86], at DCN1 protein, the Emax lay in the range of 0 to 30%. In addition, the IC50 in assay [2] (setting [3]) and in assay [2] (setting [5]) was 1000 to 3000 nM in each case.
On DCN1 protein, `C=C(CN1CCOCC1)C(=O)NCc1cccc([C@@H]2c3cnn(-c4ccccc4)c3N(CC)C(=O)[C@H]2NC(=O)c2ccn(C(F)(F)F)n2)c1` [Compound I-135] yielded an Emax of 80 to 100%. Moreover, the IC50 in assay [2] (setting [3]) and in assay [2] (setting [4]) was ≤ 200 nM each time.
`CCN1C(=O)[C@@H](NC(=O)c2cccc(C(F)(F)F)c2)[C@H](c2cccc(NC(=O)/C=C/CN(C)C)n2)c2cnn(-c3ccccc3)c21` [Compound I-214]: on DCN1 protein, the Emax lay in the range of 80 to 100%. In addition, the IC50 in assay [2] (setting [3]) was ≤ 200 nM; in assay [2] (setting [5]) it was 200 to 1000 nM.
In turn, `C=C(CN1CCOCC1)C(=O)NCc1cccc([C@@H]2c3c(C)nn(-c4ccccc4)c3N(CC)C(=O)[C@H]2NC(=O)c2cccc(C(F)(F)F)c2)c1` [Compound I-215] gave an Emax on DCN1 protein of 80 to 100%. The IC50 in assay [2] (setting [3]) and in assay [2] (setting [4]) was ≤ 200 nM each time.
As to `C=C(CN1CCN(C2COC2)CC1)C(=O)NCc1cccc([C@@H]2c3cnn(-c4ccccc4)c3N(CC)C(=O)[C@H]2NC(=O)c2cccc(C(F)(F)F)c2)n1` [Compound I-216], at DCN1 protein, the Emax lay within 80 to 100%. In addition, the results for the IC50 in assay [2] (setting [3]) and in assay [2] (setting [5]) were ≤ 200 nM and 200 to 1000 nM, respectively.
On to `C=C(C(=O)NCc1cccc([C@@H]2c3cnn(-c4ccccc4)c3N(CC)C(=O)[C@H]2NC(=O)c2nccc(C(F)(F)F)n2)c1)C(C)N(C)C1COC1` (some centres unmarked) [Compound I-217], for which the Emax at DCN1 protein was in the range of 80 to 100%. Moreover, the IC50 in assay [2] (setting [3]) and in assay [2] (setting [4]) was ≤ 200 nM in each case.
Compound `C=C(CN1CCN(C2COC2)CC1)C(=O)N(C)Cc1cccc([C@@H]2c3cnn(-c4ccccc4)c3N(CC)C(=O)[C@H]2NC(=O)c2cccc(C(F)(F)F)c2)c1` [Compound I-218] yielded an Emax on DCN1 protein of 80 to 100%. For the same compound, the IC50 in assay [2] (setting [3]) and in assay [2] (setting [5]) was ≤ 200 nM each time.
In turn, `C=C(CN1CC2(COC2)C1)C(=O)N(C)Cc1cccc([C@@H]2c3cnn(-c4ccccc4)c3N(CC)C(=O)[C@H]2NC(=O)c2cccc(C(F)(F)F)c2)c1` [Compound I-219] gave an Emax at DCN1 protein of 80 to 100%. Moreover, the IC50 in assay [2] (setting [3]) was ≤ 200 nM; in assay [2] (setting [5]), 200 to 1000 nM.
Compound `C/C=C(\CN1CCN(C2COC2)CC1)C(=O)NCc1cccc([C@@H]2c3cnn(-c4ccccc4)c3N(CC)C(=O)[C@H]2NC(=O)c2nccc(C(F)(F)F)n2)c1` [Compound I-220] yielded an Emax at DCN1 protein of 80 to 100%. The IC50 in assay [2] (setting [3]) is ≤ 200 nM; in assay [2] (setting [5]) it was 200 to 1000 nM.
The compound `C=C(C(=O)NCc1cccc([C@@H]2c3cnn(-c4ccccc4)c3N(CC)C(=O)[C@H]2NC(=O)c2nccc(C(F)(F)F)n2)c1)C(C)N1CC2(COC2)C1` (stereo partly drawn) [Compound I-221, N-((4R,5S)-7-ethyl-4-(3-((2-methylene-3-(2-oxa-6-azaspiro[3.3]heptan-6-yl)butanamido)methyl)phenyl)-6-oxo-1-phenyl-4,5,6,7-tetrahydro-1H-pyrazolo[3,4-b]pyridin-5-yl)-4-(trifluoromethyl)pyrimidine-2-carboxamide] showed an Emax on DCN1 protein of 80 to 100%. The IC50 in assay [2] (setting [3]) and in assay [2] (setting [4]) was ≤ 200 nM in each case.
For `C/C=C(\CN1CCN(C2COC2)CC1)C(=O)NCc1cccc([C@@H]2c3cnn(-c4ccccc4)c3N(CC)C(=O)[C@H]2NC(=O)c2cccc(C(F)(F)F)c2)c1` [Compound I-222], the Emax at DCN1 protein was 80 to 100%. Besides, the IC50 in assay [2] (setting [3]) was ≤ 200 nM; in assay [2] (setting [5]), 200 to 1000 nM.
The compound `C=C(CN1CCN(C2COC2)CC1)C(=O)N(C)Cc1cccc([C@@H]2c3cnn(-c4ccccc4)c3N(CC)C(=O)[C@H]2NC(=O)c2nccc(C(F)(F)F)n2)c1` [Compound I-223] came in with an Emax at DCN1 protein of 80 to 100%. Besides, the IC50 in assay [2] (setting [3]) and in assay [2] (setting [4]) was ≤ 200 nM throughout.
`CCN1C(=O)[C@@H](NC(=O)c2nccc(C(F)(F)F)n2)[C@H](c2cccc(NC(=O)C3=CCN(C)C3)c2)c2c(C)nn(-c3ccccc3)c21` [Compound I-224] showed an Emax on DCN1 protein of 80 to 100%. The figures for the IC50 in assay [2] (setting [3]) and in assay [2] (setting [5]) were ≤ 200 nM and 200 to 1000 nM, respectively.
On DCN1 protein, `CCN1CC=C(C(=O)Nc2cccc([C@@H]3c4c(C)nn(-c5ccccc5)c4N(CC)C(=O)[C@H]3NC(=O)c3nccc(C(F)(F)F)n3)c2)C1` [Compound I-225] yielded an Emax of 80 to 100%. Also, the IC50 in assay [2] (setting [5]) was in the range of 200 to 1000 nM.
For the compound `CCN1C(=O)[C@@H](NC(=O)c2nccc(C(F)(F)F)n2)[C@H](c2cccc(NC(=O)C3=CCN(C4COC4)C3)c2)c2c(C)nn(-c3ccccc3)c21` [Compound I-226], on DCN1 protein, the Emax was 0 to 30%. Also, the results for the IC50 in assay [2] (setting [3]) and in assay [2] (setting [5]) were 200 to 1000 nM and 1000 to 3000 nM, respectively.
Taken in the same sequence, the figures for `CCN1CC=C(C(=O)Nc2cccc([C@@H]3c4c(C)nn(-c5ccccc5)c4N(CC)C(=O)[C@H]3NC(=O)c3ccn(C(F)(F)F)n3)c2)C1` [Compound I-227] were 80 to 100%, ≤ 200 nM and 200 to 1000 nM.
`C=C(CN1CCC(F)(F)C1)C(=O)Nc1cccc([C@@H]2c3c(C)nn(-c4ccccc4)c3N(CC)C(=O)[C@H]2NC(=O)c2nccc(C(F)(F)F)n2)c1` [Compound I-228] registered an Emax at DCN1 protein of 80 to 100%. Besides, the IC50 in assay [2] (setting [3]) and in assay [2] (setting [4]) was ≤ 200 nM in each case.
At DCN1 protein, `C/C=C(\CN1CCN(C2COC2)CC1)C(=O)NCc1cccc([C@@H]2c3cnn(-c4ccccc4)c3N(CC)C(=O)[C@H]2NC(=O)c2ccn(C(F)(F)F)n2)c1` [Compound I-230A, N-((4R,5S)-7-ethyl-4-(3-(((E)-2-((4-(oxetan-3-yl)piperazin-1-yl)methyl)but-2-enamido)methyl)phenyl)-6-oxo-1-phenyl-4,5,6,7-tetrahydro-1H-pyrazolo[3,4-b]pyridin-5-yl)-1-(trifluoromethyl)-1H-pyrazole-3-carboxamide] gave an Emax of 80 to 100%. In addition, the IC50 is ≤ 200 nM in assay [2] (setting [3]) and 200 to 1000 nM in assay [2] (setting [5]).
Consider `C=C(C(=O)NCc1cccc([C@@H]2c3cnn(-c4ccccc4)c3N(CC)C(=O)[C@H]2NC(=O)c2csc(C(F)(F)F)n2)c1)C(C)(C)N(C)C1COC1` [Compound I-231, N-((4R,5S)-7-ethyl-4-(3-((3-methyl-3-(methyl(oxetan-3-yl)amino)-2-methylenebutanamido)methyl)phenyl)-6-oxo-1-phenyl-4,5,6,7-tetrahydro-1H-pyrazolo[3,4-b]pyridin-5-yl)-2-(trifluoromethyl)thiazole-4-carboxamide], for which the Emax at DCN1 protein is 80 to 100%. Moreover, the IC50 in assay [2] (setting [3]) and in assay [2] (setting [4]) was ≤ 200 nM in each case.
At DCN1 protein, `C/C=C(\CN1CCN(C2COC2)CC1)C(=O)Nc1cccc([C@@H]2c3cnn(-c4ccccc4)c3N(CC)C(=O)[C@H]2NC(=O)c2nccc(C(F)(F)F)n2)c1` [Compound I-232, N-((4R,5S)-7-ethyl-4-(3-((E)-2-((4-(oxetan-3-yl)piperazin-1-yl)methyl)but-2-enamido)phenyl)-6-oxo-1-phenyl-4,5,6,7-tetrahydro-1H-pyrazolo[3,4-b]pyridin-5-yl)-4-(trifluoromethyl)pyrimidine-2-carboxamide] had an Emax of 80 to 100%. In addition, the IC50 in assay [2] (setting [3]) and in assay [2] (setting [5]) was ≤ 200 nM each time.
In turn, `C/C=C(\CN1CCN(C2COC2)CC1)C(=O)Nc1cccc([C@@H]2c3cnn(-c4ccccc4)c3N(CC)C(=O)[C@H]2NC(=O)c2ccn(C3CC3)n2)c1` [Compound I-233] registered an Emax on DCN1 protein of 80 to 100%. The 50% inhibitory concentration (IC50) in assay [2] (setting [3]) and in assay [2] (setting [5]) was ≤ 200 nM throughout.
